Laboratory results published in PubChem BioAssay AID1963856 (Molecular Pharmacology Branch, DTP, NCI, 2024).

Tested on: LG0567-F671-PDC KRAS tumor spheroid viability
Test: Anticancer human tumor LG0567-F671-PDC patient-derived lung adenocarcinoma cell line growth inhibition [KRAS2]
Conditions: spheroids with HUVEC and MSC; for IC50: curve of first compound; for viability, T/C: stronger effect = lower value
Source text: Multicellular complex tumor spheroid response to RAS pathway inhibitors in combination with a targeted agents in patient-derived cell lines with oncogenic KRAS variants from multiple cancer types
A high-throughput screen of multi-cell type tumor spheroids was designed to identify active combinations of targeted small molecules and KRAS pathway inhibitors. Complex spheroids include a stromal component modeled by human endothelial cells (HUVEC) and fibroblasts modeled by human mesenchymal stem cells (MSCs). The concentration ranges selected for each drug and investigational agent were based upon clinically achievable concentrations if the clinical Cmax of the agent was known.
Compounds. The drugs and investigational agents: BI-3406 (NSC825286), BAY-293 (NSC824723), batoprotafib (TNO155; NSC825523), sotorasib (AMG 510; NSC818433), MRTX1257 (NSC819558), elimusertib (BAY 1895344; NSC800525), molibresib (GSK525762; NSC774829), temuterkib (LY3214996; NSC803410), venetoclax (NSC766270), alisertib (NSC759677), olaparib (NSC753686), talazoparib (NSC767125), erdafitinib (NSC781556), ipatasertib (NSC767898), cabozantinib (NSC761068), nintedanib (NSC756659), abemaciclib (NSC768073), docetaxel (NSC628503), trametinib (NSC758246), and sapanisertib (NSC764658) were obtained from the National Cancer Institute (NCI) Developmental Therapeutics Program Chemical Repository. The FDA-approved anticancer drug set is available from the Developmental Therapeutics Program. […] The stock solutions were prepared in dimethyl sulfoxide (DMSO, Sigma-Aldrich, St. Louis, MO, cat. D2650) at 800-fold the tested concentration and stored at -70 degrees C prior to their use. All drugs and investigational agents were tested over a range starting from a high concentration at or near the clinical Cmax and decreasing in half-log increments. If the clinical Cmax for an agent had not been determined, the highest concentration tested was 10 microM.
Cell Culture. All cells were maintained in an incubator at 37 degrees C and 5% CO2 with 95% humidity. The PDC lines were cultured according to standard operating procedures established by the NCI PDMR (https://pdmr.cancer.gov/sops/default.htm). Briefly, all PDCs were thawed and cultured in Matrigel-coated flasks prepared with a working solution of 1X Ham's F-12 nutrient mix, without supplementation (Invitrogen, Waltham, MA, cat. 11765054), 100 U/mL penicillin-streptomycin (Invitrogen, cat. 15140122), and 2.5% Matrigel (Corning Inc., Corning, NY, cat. 354248) for the first three passages. All PDCs were cultured in complete DMEM/F-12 media containing advanced DMEM/F-12 (Invitrogen, cat. 12634028), 4.9% defined fetal bovine serum, heat inactivated (HyClone Laboratories Inc., Logan, UT, cat. SH30070.03HI), 389 ng/mL hydrocortisone (Sigma-Aldrich, cat. H4001), 9.7 ng/mL human EGF recombinant protein (Invitrogen, cat. PHG0313), 23.4 microg/mL adenine (Sigma-Aldrich, cat. A2786), 97.3 U/mL penicillin-streptomycin (Invitrogen, cat. 15140122), 1.9 mM L-glutamine (Invitrogen, cat. 25030081), and 9.7 microM Y-27632 dihydrochloride (Tocris Bioscience, Bristol, United Kingdom, cat. 1254). The PDCs were cultured in complete DMEM/F12 media without 9.7 microM Y-27632 dihydrochloride for at least two passages prior to the screen. The established cell line HOP-62 was cultured in RPMI 1640 medium, HEPES (Invitrogen, cat. 22400105) with 10% defined fetal bovine serum (HyClone Laboratories Inc., cat. SH30070.03) and 2 mM L-glutamine (Invitrogen, cat. 25030081). The pooled donor HUVEC were cultured in endothelial cell growth medium 2 (PromoCell, Heidelberg, Germany, cat. C-22011) and the hMSC were cultured in mesenchymal stem cell growth medium 2 (PromoCell, cat. C-28009). For all experiments, HUVEC and hMSC were used at passages </=5, while the malignant cell lines were used at passages </=15. […]

[1] = second compound 0.1 µM, first compound 0.0316 µM
[2] = second compound 0.316 µM, first compound 0.0316 µM
[3] = second compound 1 µM, first compound 0.0316 µM
[4] = second compound 3.16 µM, first compound 0.0316 µM
[5] = second compound 10 µM, first compound 0.0316 µM
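Note: drug exposure lasted seven days after spheroids formed for three days.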
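Throughout, for viability, T/C: 100% = DMSO vehicle control viability.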

CC(=O)Nc1cccc(-n2c(=O)n(C3CC3)c(=O)c3c(Nc4ccc(I)cc4F)n(C)c(=O)c(C)c32)c1 + C=CC(=O)N1CCN(c2nc(=O)n(-c3c(C)ccnc3C(C)C)c3nc(-c4c(O)cccc4F)c(F)cc23)C(C)C1 was tested, and the IC50 (second compound 0.1 µM) was < 0.0001 µM, the IC50 (second compound 0.316 µM) was < 0.0001 µM and the IC50 (second compound 1 µM) was < 0.0001 µM. The IC50 (second compound 3.16 µM) was < 0.0001 µM, the IC50 (second compound 10 µM) was < 0.0001 µM and the viability, T/C (second compound 0.1 µM, first compound 0.0001 µM) was 26.4%. The viability, T/C (second compound 0.1 µM, first compound 0.000316 µM) was 25.5%, the viability, T/C (second compound 0.1 µM, first compound 0.001 µM) was 26.4% and the viability, T/C (second compound 0.1 µM, first compound 0.00316 µM) was 27.6%. The viability, T/C (second compound 0.1 µM, first compound 0.01 µM) was 12.1%, the viability, T/C [1] was 4.13% and the viability, T/C (second compound 0.316 µM, first compound 0.0001 µM) was 24.9%. For the same compound, the viability, T/C (second compound 0.316 µM, first compound 0.000316 µM) was 24.7%, the viability, T/C (second compound 0.316 µM, first compound 0.001 µM) was 28.9% and the viability, T/C (second compound 0.316 µM, first compound 0.00316 µM) was 14.2%. The viability, T/C (second compound 0.316 µM, first compound 0.01 µM) was 8.8%, the viability, T/C [2] was 2.68% and the viability, T/C (second compound 1 µM, first compound 0.0001 µM) was 30.5%. It also gave a viability, T/C (second compound 1 µM, first compound 0.000316 µM) of 28.2%, a viability, T/C (second compound 1 µM, first compound 0.001 µM) of 22.8% and a viability, T/C (second compound 1 µM, first compound 0.00316 µM) of 17.7%. The viability, T/C (second compound 1 µM, first compound 0.01 µM) was 8.78%, the viability, T/C [3] was 3.83% and the viability, T/C (second compound 3.16 µM, first compound 0.0001 µM) was 26.7%. It also gave a viability, T/C (second compound 3.16 µM, first compound 0.000316 µM) of 27.7%, a viability, T/C (second compound 3.16 µM, first compound 0.001 µM) of 20.1% and a viability, T/C (second compound 3.16 µM, first compound 0.00316 µM) of 10.5%. The viability, T/C (second compound 3.16 µM, first compound 0.01 µM) was 10.7%, the viability, T/C [4] was 3.27% and the viability, T/C (second compound 10 µM, first compound 0.0001 µM) was 20.3%. The viability, T/C (second compound 10 µM, first compound 0.000316 µM) was 18.9%, the viability, T/C (second compound 10 µM, first compound 0.001 µM) was 16.9% and the viability, T/C (second compound 10 µM, first compound 0.00316 µM) was 11.7%. It also gave a viability, T/C (second compound 10 µM, first compound 0.01 µM) of 6.78% and a viability, T/C [5] of 4.36%.
In the case of COc1cc(Nc2ncc3c(n2)-c2ccc(Cl)cc2C(c2c(F)cccc2OC)=NC3)ccc1C(=O)O + C=CC(=O)N1CCN(c2nc(=O)n(-c3c(C)ccnc3C(C)C)c3nc(-c4c(O)cccc4F)c(F)cc23)C(C)C1, the IC50 (second compound 0.1 µM) is reported as < 0.0316 µM, the IC50 (second compound 0.316 µM) is reported as < 0.0316 µM and the IC50 (second compound 1 µM) is reported as < 0.0316 µM. The IC50 (second compound 3.16 µM) was < 0.0316 µM, the IC50 (second compound 10 µM) was < 0.0316 µM and the viability, T/C [1] was 25.7%. The viability, T/C (second compound 0.1 µM, first compound 0.1 µM) was 24.3%, the viability, T/C (second compound 0.1 µM, first compound 0.316 µM) was 25.9% and the viability, T/C (second compound 0.1 µM, first compound 1 µM) was 24.3%. The viability, T/C (second compound 0.1 µM, first compound 3.16 µM) was 22.8%, the viability, T/C (second compound 0.1 µM, first compound 10 µM) was 21.6% and the viability, T/C [2] was 12.2%. It also gave a viability, T/C (second compound 0.316 µM, first compound 0.1 µM) of 11.9%, a viability, T/C (second compound 0.316 µM, first compound 0.316 µM) of 11.1% and a viability, T/C (second compound 0.316 µM, first compound 1 µM) of 11.3%. For the same compound, the viability, T/C (second compound 0.316 µM, first compound 3.16 µM) was 11.4%, the viability, T/C (second compound 0.316 µM, first compound 10 µM) was 9.24% and the viability, T/C [3] was 27.2%. It also gave a viability, T/C (second compound 1 µM, first compound 0.1 µM) of 23.6%, a viability, T/C (second compound 1 µM, first compound 0.316 µM) of 23.5% and a viability, T/C (second compound 1 µM, first compound 1 µM) of 24.6%. The viability, T/C (second compound 1 µM, first compound 3.16 µM) was 25.7%, the viability, T/C (second compound 1 µM, first compound 10 µM) was 21.6% and the viability, T/C [4] was 23.8%. For the same compound, the viability, T/C (second compound 3.16 µM, first compound 0.1 µM) was 20.6%, the viability, T/C (second compound 3.16 µM, first compound 0.316 µM) was 20.2% and the viability, T/C (second compound 3.16 µM, first compound 1 µM) was 22.2%. For the same compound, the viability, T/C (second compound 3.16 µM, first compound 3.16 µM) was 21%, the viability, T/C (second compound 3.16 µM, first compound 10 µM) was 20.6% and the viability, T/C [5] was 23.3%. The viability, T/C (second compound 10 µM, first compound 0.1 µM) was 23.5%, the viability, T/C (second compound 10 µM, first compound 0.316 µM) was 23.8% and the viability, T/C (second compound 10 µM, first compound 1 µM) was 24.4%. The viability, T/C (second compound 10 µM, first compound 3.16 µM) was 22.5% and the viability, T/C (second compound 10 µM, first compound 10 µM) was 29.5%.
